Data set [1] concerns the target T1, MnaA (Staphylococcus aureus, UniProt Q9REV4).
T1 construct: MnaA-His6 in the activity assays; purification in supplement (S1 Text); dimer in crystal; residues from 376 to the C-terminus not modelled
In words: X-ray crystal structure, […] Å. Format: binding. The note with it: 4 mM Na2UDP added; one UDP per chain; also co-purified with the protein.

In data set [2] the test system is T2, Staphylococcus epidermidis MRSE CLB26329.
T2 construct: CLB26329 (MRSE), parental wild type
Kind of data set: microbe, parasite or virus in culture. Further details: minimum inhibitory concentration of antibiotics against staphylococcal strains. From the text: (§1) Minimum inhibitory concentrations (MIC; μg ml^-1) of β-lactams imipenem (IPM), nafcillin (Naf), and dicloxacillin (Dic) are provided. […] To directly evaluate the consequence of these mnaA mutations, WTA of the corresponding mutants was extracted and polymer levels visualized on an alcian blue-silver stained SDS PAGE gel (Fig 3A and S1 Fig).

Data set [3] has as its system T3, Staphylococcus aureus MRSA COL.
T3 construct: COL (MRSA), parental wild type
Kind of data set: microbe, parasite or virus in culture. Also noted: minimum inhibitory concentration of antibiotics against staphylococcal strains.
Text: as §1

Data set [4] relates to CC(=O)N[C@H]1[C@@H](OP(=O)(O)OP(=O)(O)OC[C@H]2O[C@@H](n3ccc(=O)[nH]c3=O)[C@H](O)[C@@H]2O)O[C@H](CO)[C@@H](O)[C@@H]1O. Kind of data set: purified protein. The note with it: forward reaction, 10 mM NaPi, 50 mM NaCl, pH 8.0, 30°C, MnaA-His6.
Data set [5] has as its system CC(=O)N[C@@H]1[C@@H](OP(=O)(O)OP(=O)(O)OC[C@H]2O[C@@H](n3ccc(=O)[nH]c3=O)[C@H](O)[C@@H]2O)O[C@H](CO)[C@@H](O)[C@@H]1O. Kind of data set: purified protein. The following applies: reverse reaction, 10 mM NaPi, 50 mM NaCl, pH 8.0, 30°C, MnaA-His6.
The mark [6] stands for this setting: read-out: MIC (µg ml-1) / Vanco.

Converted amounts (≈) assume the structure as drawn. Like-named read-outs stand apart in the source and are kept apart here.

T1 sequence (Q9REV4 entry or part of it): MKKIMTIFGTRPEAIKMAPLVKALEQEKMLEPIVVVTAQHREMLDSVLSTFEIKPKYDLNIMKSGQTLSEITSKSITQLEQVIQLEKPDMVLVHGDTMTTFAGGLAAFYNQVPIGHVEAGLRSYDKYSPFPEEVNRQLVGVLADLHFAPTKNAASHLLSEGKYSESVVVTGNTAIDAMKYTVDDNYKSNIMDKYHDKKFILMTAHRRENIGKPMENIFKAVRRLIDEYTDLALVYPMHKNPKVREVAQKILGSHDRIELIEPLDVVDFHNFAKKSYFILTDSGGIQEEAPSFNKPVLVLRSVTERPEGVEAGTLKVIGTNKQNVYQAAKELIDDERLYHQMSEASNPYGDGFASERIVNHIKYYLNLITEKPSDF

For the compound `O=c1ccn([C@@H]2O[C@H](COP(=O)(O)OP(=O)(O)O)[C@@H](O)[C@H]2O)c(=O)[nH]1` [UDP], in data set [1], the “X-ray crystal structure, 1.9 Å” value is on record as “The model also contains one molecule of UDP per chain”.
With `Cc1onc(-c2c(Cl)cccc2Cl)c1C(=O)N[C@@H]1C(=O)N2[C@@H]1SC(C)(C)[C@@H]2C(=O)O` [dicloxacillin], the MIC in data set [2] (read-out: MIC (µg ml-1) / Dic) and in data set [3] (read-out: MIC (µg ml-1) / Dic) was greater than 64 µg/mL each time.
`C[C@@H](O)[C@H]1C(=O)N2C(C(=O)O)=C(SCCNC=N)C[C@H]12` [imipenem]: the MIC in data set [2] (read-out: MIC (µg ml-1) / IPM) amounted to 64 µg/mL (≈ 214 µM); in data set [3] (read-out: MIC (µg ml-1) / IPM) it was 32 µg/mL (≈ 107 µM).
Turning to `CCOc1ccc2ccccc2c1C(=O)N[C@@H]1C(=O)N2[C@@H]1SC(C)(C)[C@@H]2C(=O)O` [nafcillin], the MIC in data set [2] (read-out: MIC (µg ml-1) / Naf) and in data set [3] (read-out: MIC (µg ml-1) / Naf) was greater than 64 µg/mL throughout.
On to `CN[C@H](CC(C)C)C(=O)N[C@H]1C(=O)N[C@@H](CC(N)=O)C(=O)N[C@H]2C(=O)N[C@H]3C(=O)N[C@H](C(=O)N[C@H](C(=O)O)c4cc(O)cc(O)c4-c4cc3ccc4O)[C@H](O)c3ccc(c(Cl)c3)Oc3cc2cc(c3O[C@@H]2O[C@H](CO)[C@@H](O)[C@H](O)[C@H]2O[C@H]2C[C@](C)(N)[C@H](O)[C@H](C)O2)Oc2ccc(cc2Cl)[C@H]1O` [vancomycin], for which the MIC in data set [2] (setting [6]) was 4 µg/mL (≈ 2.76 µM); in data set [3] (setting [6]), 2 µg/mL (≈ 1.38 µM).
As to MnaA (Staphylococcus aureus), the Km in data set [4] turned out to be 411 ± 57 µM; in data set [5], 131 ± 21 µM.

The Km is the substrate concentration at which the rate is half of its maximum.

For the origin of these results see publication PMC4856313 (PLoS Pathogens, 2016).
